Assay results taken from patent publication US9598532B2, “Terpolymers as pressure-sensitive adhesives” (Surmodics, Inc., priority 2010, dated 2017).

Test: In vivo elution of minocycline from the implant device
Conditions: within 72 hours
Method: The final implant device prepared above was pressed onto a silicone-release liner under normal ambient conditions (30-40% relative humidity). The implant device was vacuum sealed in foil pouches (with argon backflow) in a dry room (<20% relative humidity). The implant device was sterilized using 22-28 kGy of gamma radiation at a slow dose rate of 4-6 kGy/hour. Gamma irradiation was performed on dry ice, but can also be performed at ambient temperature. The bioactive agent content of the implant device was within +/−10% of the target dose. Greater than 80% minocycline eluted in vivo within 72 hours.

**Q.** Which “minocycline eluted in vivo” value does the source give for `CN(C)c1ccc(O)c2c1C[C@H]1C[C@H]3[C@H](N(C)C)C(O)=C(C(N)=O)C(=O)[C@@]3(O)C(O)=C1C2=O` [Minocycline] here?
**A.** Greater than 80%
